These results are taken from ChEMBL document CHEMBL5223095, “Structure activity relationship of N-1 substituted 1,5-naphthyrid-2-one analogs of oxabicyclooctane-linked novel bacterial topoisomerase inhibitors as broad-spectrum antibacterial agents (Part-9)” (Bioorg Med Chem Lett, 2022).

Common to all, as to format: functional
The test system of one test is Acinetobacter baumannii. As to the kind of experiment: Antibacterial activity against Acinetobacter baumannii IID876 assessed as bacterial growth inhibition by CLSI protocol agar-based assay.
For the next test, the system named is Staphylococcus aureus. As to the kind of experiment: Antibacterial activity against methicillin-resistant Staphylococcus aureus OITII-971 assessed as bacterial growth inhibition by CLSI protocol agar-based assay.
The test system of a further test is Enterococcus faecium. The experiment in a line: Antibacterial activity against Vanomycin-resistant Enterococcus faecium assessed as bacterial growth inhibition by CLSI protocol agar-based assay.
The test system of a further test is Escherichia coli. The experiment in a line: Antibacterial activity against Escherichia coli ATCC 25922 assessed as bacterial growth inhibition by CLSI protocol agar-based assay.
The next test has as its system Streptococcus pneumoniae. As to the kind of experiment: Antibacterial activity against Streptococcus pneumoniae IID553 assessed as bacterial growth inhibition by CLSI protocol agar-based assay.
The next test has as its system Pseudomonas aeruginosa. As to the kind of experiment: Antibacterial activity against Pseudomonas aeruginosa PAO1 assessed as bacterial growth inhibition by CLSI protocol agar-based assay.

≈ marks a conversion by molar mass, not a printed value.

Take `COc1ccc2ncc(F)c(C[C@H](O)C34CCC(NCc5ccc6c(n5)NC(=O)CO6)(CC3)CO4)c2n1`: the MIC (in general, the smallest concentration in the dilution series that meets the test's criterion for growth inhibition) in the test on Acinetobacter baumannii was 0.5 µg/mL (≈ 0.981 µM); with Staphylococcus aureus it was 0.02 µg/mL (≈ 0.0393 µM); in the test on Enterococcus faecium, 0.5 µg/mL (≈ 0.981 µM); in the test with Escherichia coli it was 2 µg/mL (≈ 3.93 µM); with Streptococcus pneumoniae it was 0.05 µg/mL (≈ 0.0981 µM); in the test on Pseudomonas aeruginosa, 8 µg/mL (≈ 15.7 µM).
Take `O=c1ccc2ncc(F)c(CCC34CCC(NCc5cnc(-c6cccnc6)s5)(CC3)CO4)c2n1CCO`: the MIC in the test with Acinetobacter baumannii was > 16 µg/mL; with Staphylococcus aureus, > 16 µg/mL; in the test on Enterococcus faecium it was > 16 µg/mL; in the test on Escherichia coli it was > 16 µg/mL; in the test with Streptococcus pneumoniae, > 16 µg/mL; with Pseudomonas aeruginosa, > 32 µg/mL.
With `O=c1ccc2ncc(F)c(C[C@H](O)C34CCC(NC/C=C/c5cc(F)ccc5F)(CC3)CO4)c2n1CCO`, the minimal inhibitory concentration (MIC) came to 1 µg/mL (≈ 1.89 µM) in the test with Acinetobacter baumannii; 0.5 µg/mL (≈ 0.944 µM) in the test on Staphylococcus aureus; 16 µg/mL (≈ 30.2 µM) with Enterococcus faecium; 16 µg/mL (≈ 30.2 µM) in the test on Escherichia coli; 0.5 µg/mL (≈ 0.944 µM) with Streptococcus pneumoniae; 64 µg/mL (≈ 121 µM) with Pseudomonas aeruginosa.
For the molecule `O=c1ccc2ncc(F)c(CCC34CCC(NCc5cnc(-c6ccncc6)s5)(CC3)CO4)c2n1CCO`, the minimal inhibitory concentration (MIC) in the test with Acinetobacter baumannii, in the test with Staphylococcus aureus, with Enterococcus faecium, with Escherichia coli, in the test with Streptococcus pneumoniae and in the test with Pseudomonas aeruginosa was > 32 µg/mL throughout.
With `O=c1ccc2ncc(F)c(CCC34CCC(NCc5cnc(-c6ncccn6)s5)(CC3)CO4)c2n1CCO`, the MIC in the test with Acinetobacter baumannii is > 16 µg/mL; in the test with Staphylococcus aureus, 1 µg/mL (≈ 1.86 µM); in the test with Enterococcus faecium it was > 16 µg/mL; in the test with Escherichia coli it was > 16 µg/mL; with Streptococcus pneumoniae it was 4 µg/mL (≈ 7.45 µM); in the test with Pseudomonas aeruginosa it was > 32 µg/mL.
Turning to `O=c1ccc2ncc(F)c(CCC34CCC(NCc5cc(-c6cccs6)on5)(CC3)CO4)c2n1CCO`, the minimum inhibitory concentration (MIC) in the test on Acinetobacter baumannii is 128 µg/mL (≈ 244 µM); in the test on Staphylococcus aureus, 4 µg/mL (≈ 7.62 µM); with Enterococcus faecium, 64 µg/mL (≈ 122 µM); in the test with Escherichia coli, > 128 µg/mL; in the test with Streptococcus pneumoniae, 4 µg/mL (≈ 7.62 µM); with Pseudomonas aeruginosa it was > 64 µg/mL.
Turning to `O=C1COc2ccc(CNC34CCC([C@@H](O)Cc5c(F)cnc6ccc(=O)n(CCO)c56)(CC3)OC4)nc2N1`, the minimal inhibitory concentration (MIC) in the test on Acinetobacter baumannii worked out at 4 µg/mL (≈ 7.41 µM); in the test on Staphylococcus aureus, 0.031 µg/mL (≈ 0.0575 µM); in the test with Enterococcus faecium, 2 µg/mL (≈ 3.71 µM); in the test with Escherichia coli, 32 µg/mL (≈ 59.3 µM); with Streptococcus pneumoniae, 0.125 µg/mL (≈ 0.232 µM); in the test on Pseudomonas aeruginosa, 16 µg/mL (≈ 29.7 µM).
Turning to `O=c1ccc2ncc(F)c(CCC34CCC(NCc5cnc(C6CCCCC6)s5)(CC3)CO4)c2n1CCO`, the MIC with Acinetobacter baumannii is > 32 µg/mL; with Staphylococcus aureus, > 32 µg/mL; in the test with Enterococcus faecium it was > 32 µg/mL; in the test on Escherichia coli, > 32 µg/mL; in the test on Streptococcus pneumoniae, > 32 µg/mL; in the test with Pseudomonas aeruginosa, > 16 µg/mL.
`O=c1ccc2ncc(F)c(CCC34CCC(NCc5cn(-c6ncccn6)cn5)(CC3)CO4)c2n1CCO`: the MIC in the test with Acinetobacter baumannii is > 32 µg/mL; in the test with Staphylococcus aureus, > 32 µg/mL; in the test on Enterococcus faecium, > 32 µg/mL; with Escherichia coli it was > 32 µg/mL; with Streptococcus pneumoniae, > 32 µg/mL; in the test with Pseudomonas aeruginosa, > 128 µg/mL.
On to `Cn1cc(-c2ncc(CNC34CCC(CCc5c(F)cnc6ccc(=O)n(CCO)c56)(CC3)OC4)s2)cn1`, for which the minimum inhibitory concentration (MIC) was > 32 µg/mL in the test with Acinetobacter baumannii; 2 µg/mL (≈ 3.71 µM) with Staphylococcus aureus; > 32 µg/mL in the test on Enterococcus faecium; > 32 µg/mL in the test on Escherichia coli; 8 µg/mL (≈ 14.9 µM) with Streptococcus pneumoniae; > 32 µg/mL in the test on Pseudomonas aeruginosa.
Turning to `O=c1ccc2ncc(F)c(C[C@H](O)C34CCC(NCc5cc6c(cn5)OCCO6)(CC3)CO4)c2n1CCO`, the minimum inhibitory concentration (MIC) in the test with Acinetobacter baumannii is 64 µg/mL (≈ 122 µM); in the test on Staphylococcus aureus, 2 µg/mL (≈ 3.8 µM); in the test on Enterococcus faecium it was 32 µg/mL (≈ 60.8 µM); with Escherichia coli it was 128 µg/mL (≈ 243 µM); in the test with Streptococcus pneumoniae, 2 µg/mL (≈ 3.8 µM); in the test on Pseudomonas aeruginosa it was > 128 µg/mL.
In the case of `O=c1ccc2ncc(F)c(CCC34CCC(NCc5cnc(-c6ccccn6)s5)(CC3)CO4)c2n1CCO`, the MIC with Acinetobacter baumannii was > 32 µg/mL; in the test with Staphylococcus aureus it was > 32 µg/mL; with Enterococcus faecium, > 32 µg/mL; with Escherichia coli, > 32 µg/mL; with Streptococcus pneumoniae it was > 32 µg/mL; with Pseudomonas aeruginosa it was > 16 µg/mL.
